Measurements reported in patent publication US20040023884A1, “Biologically active peptides from functional domains of bactericidal/permeability-increasing protein and uses thereof” (priority 1993, published 2004).
“Also recorded” adds a separate entry of the source.

How the values were obtained:
[1] = test system: L-form of S. aureus ATCC 19640; assay: Activity against L-forms of gram-positive bacteria; format: cell-based
Description: The bactericidal capacity of BPI peptides provided by the invention was also tested against Gram-positive bacteria (See Table VIII A). […] In addition, peptides were tested for their activity against L-forms of gram-positive bacteria, such as the L-form of S. aureus ATCC 19640.

[2] = test system: rough mutant E. coli J5 bacteria; assay: Radial diffusion bactericidal assay, E. coli J5; format: cell-based; details: for pmol added to well to achieve a 30 mm^2 bactericidal zone, E. coli J5 / bactericidal activity (in words): radial diffusion; for pmol added to well to achieve a 30 mm^2 bactericidal zone, E. coli J5: PROBIT analysis, E. coli J5 (rough); for bactericidal activity (in words): E. coli J5
Procedure, shortened: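 Log-phase bacteria, washed in 10 mM sodium phosphate pH 7.4, were seeded at 4×10^6 CFU/mL in underlayer agarose. BPI fragments (5 or 10 μL) went into 3 mm wells for 3 h at 37° C., then overlayer agarose was added. After overnight 37° C. incubation, clearing zones were measured by micrometer.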

Staphylococcus aureus = assay: Radial diffusion bactericidal assay, Staphylococcus aureus; format: cell-based
[3] = test system: E. coli 0111:B4 (smooth) bacteria; assay: Radial diffusion bactericidal assay, E. coli 0111:B4; format: cell-based; details: radial diffusion; for pmol added to well to achieve a 30 mm^2 bactericidal zone, E. coli O111:B4: PROBIT analysis, E. coli O111:B4 (smooth)
E. coli O18:K1:H7 = assay: Radial diffusion bactericidal assay, E. coli O18:K1:H7; format: cell-based; details: FIG. 11b; up to about 2000 pmol
[4] = 3H-heparin binding assay (affinity and capacity)
Procedure, shortened: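 Peptide fragments were bound to PVDF-membrane wells and incubated with 3H-heparin in blocking buffer for 1 h at 4 °C. After washing, bound radioactivity was quantified by liquid scintillation counting, with BSA background subtracted; rBPI23 served as positive control.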

Klebsiella pneumoniae = assay: Radial diffusion bactericidal assay, Klebsiella pneumoniae; format: cell-based
E. coli strain 07-K1 = assay: Radial diffusion bactericidal assay, E. coli 07-K1; format: cell-based; details: FIG. 10c
Description: BPI proteolytic fragments produced according to Example 1 were screened for bactericidal effects using rough mutant E. coli J5 bacteria in a radial diffusion assay. Specifically, an overnight culture of E. coli J5 was diluted 1:50 into fresh tryptic soy broth and incubated for 3 hours at 37° C. to attain log phase growth of the culture. Bacteria were then pelleted at 3,000 rpm for 5 minutes in a Sorvall RT6000B centrifuge (Sorvall Instruments, Newton, Conn.). 5 mL of 10 mM sodium phosphate buffer (pH 7.4) was added and the preparation was re-pelleted. […] The bacteria were diluted to 4×10^6 CFU/mL in 10 mL of molten underlayer agarose (at approximately 45° C.) and inverted repeatedly to mix in 15 mL polypropylene tubes conventionally used for this purpose.
The entire contents of such tubes were then poured into a level square petri dish and distributed evenly by rocking the dish side-to-side. […] A series of wells were then punched into the hardened agarose using a sterile 3 mm punch attached to a vacuum apparatus. The punch was sterilized with 100% alcohol and allowed to air dry prior to use to avoid contaminating the bacterial culture.
5 or 10 μL of each of the BPI fragments were carefully pipetted into each well. As a negative control, dilution buffer (pH 8.3) was added to a separate well, and rBPI23 at concentrations of 5 μg/mL and 1 μg/mL were also added as positive controls. Each plate was incubated at 37° C. for 3 hours, and then 10 mL of molten overlayer agarose (at approximately 45° C.) was added into the level petri dish, allowed to harden and incubated overnight at 37° C. […] The bacterial zones were measured with a micrometer.
Additional experiments were performed using various other bacteria as target cells to examine the range of bactericidal killing of these BPI functional domain peptides.

Pseudomonas aeruginosa = assay: Radial diffusion bactericidal assay, Pseudomonas aeruginosa; format: cell-based; details: FIG. 11a; up to about 2000 pmol
E. coli 0113 LPS = assay: Limulus Amoebocyte Lysate (LAL) inhibition assay; format: biochemical
Description: BPI proteolytic fragments produced according to Example 1 were subjected to a Limulus Amoebocyte Lysate (LAL) inhibition assay to determine LPS binding properties of these fragments. Specifically, each of the fragments were mixed in Eppendorf tubes with a fixed concentration of E. coli 0113 LPS (4 ng/mL final concentration) and incubated at 37° C. for 3 hours with occasional shaking. Addition controls comprising rBPI23 at 0.05 μg/mL were also tested. Following incubation, 360 μL of Dulbecco's phosphate buffered saline (D-PBS; Grand Island Biological Co. (GIBCO), Long Island, N.Y.) were added per tube to obtain an LPS concentration of 200 pg/mL for the LAL assay. Each sample was then transferred into Immulon II strips (Dynatech, Chantilly, Va.) in volumes of 50 μl per well.
Limulus amoebocyte Lysate (Quantitative Chromogenic LAL kit, Whitaker Bioproducts, Inc., Walkersville, Md.) was added at 50 μL per well and the wells were incubated at room temperature for 25 minutes. Chromogenic substrate was then added at a volume of 100 μL per well and was well mixed. After incubation for 20 to 30 minutes at room temperature, the reaction was stopped with addition of 100 μL of 25% (v/v) acetic acid. Optical density at 405 nm was then measured in a multiplate reader (Model Vmax, […], Menlo Park, Calif.) with the results shown in FIG. 2 in terms of percent inhibition of LPS. In this Figure, the filled circle represents rBPI23; the open circle represents Asp-N fragment A3; the x represents Asp-N fragment A2, the filled square represents Asp-N fragment A4; the filled triangle represents Asp-N fragment A1A2; the open square represents Asp-N fragment A6a; the small open triangle represents CNBr fragment C3; and the small filled square represents CNBr fragment C1/C5.

E. coli O75 = assay: Radial diffusion bactericidal assay, E. coli O75; format: cell-based; details: FIG. 11d; up to about 2000 pmol
[5] = In vivo APTT in heparinized rats; parameters: species or system Sprague-Dawley rats; details: 100 U/kg heparin i.v., test protein 5 minutes later, blood 2 minutes after
Description: The in vivo effect of exemplary BPI combination peptides on APTT in heparinized rats was determined and compared with the in vivo effect of rBPI23. APTT is lengthened by the presence of endogenous or exogenous inhibitors of thrombin formation, such as therapeutically administered heparin. Agents which neutralize the anti-coagulant effects of heparin will reduce the APTT as measured by this test. Sprague-Dawley rats housed under NIH guidelines were administered with 100 U/kg heparin by bolus intravenous injections via the animals' tail vein followed 5 minutes later by administration of varying amounts of test or control protein as compared with rBPI23. The APTT was then determined from blood samples collected from the abdominal aorta 2 minutes after the administration of the test or control protein. The APTT of untreated animals, as well as animals treated only with a BPI peptide, was also determined.

[6] = In vitro heparin-mediated lengthening of APTT / clotting time of heparinized plasma; format: biochemical, human
Description: In vitro, the effect of BPI combination functional domain peptides was determined on heparin-mediated lengthening of activated partial […] (APTT). The APTT is lengthened by the presence of endogenous or exogenous inhibitors of thrombin formation, such as therapeutically administered heparin. Thus, agents which neutralize the anti-coagulant effects of heparin will reduce the APTT measured by the test. Citrated human plasma (200 μL) was incubated for 1 minute at 37° C. with either 15 μL of diluent (0.15 M NaCl, 0.1 M Tris-HCl, pH 7.4) or 15 μL of the diluent also containing 25 μg/mL heparin (187 units/mg). Various concentrations (from 0.0 to 56 μg/mL) of rBPI23, rBPI21Δcys, or BPI combination peptides BPI.29 (the DIII homodimer) and BPI.30 (heterodimer DII+DIII) in a volume of 15 μL were added, followed immediately by 100 μL of thrombin reagent (Catalog No. 845-4, Sigma Chemical Co., St. Louis. MO). Clotting time ([…]) was measured using a BBL Fibrometer (Becton Dickenson Microbiology Systems, Cockeysville, Md.). […] FIG. 12e illustrates the results obtained with BPI.30 on a non-log scale.

[7] = test system: LPS-stimulated NO production by RAW 264.7 cells; assay: LPS-stimulated NO production by RAW 264.7 cells; format: cell-based, mouse
Description: An additional LPS neutralization screening assay for BPI functional domain peptides was developed using an assay for NO production in mouse cells treated with LPS (see Lorsbach et al., 1993, J. Biol. Chem. 268: 1908-1913). In this assay, mouse RAW 264.7 cells (ATCC Accession No. TIB71) were treated with bacterial LPS. The cells were incubated in 96-well plates and stimulated for 2 hours with E. coli 0113 LPS or zymosan, in the presence or absence of _-interferon, rLBP, fetal bovine serum (FBS) or normal human serum (NHS), or rBPI21Δcys. After this incubation, the cells were washed with fresh media and incubated overnight in media containing 10% FCS. The NO released from the cells accumulated in the media and spontaneously converted to nitrite. This nitrite was assayed in situ by the Griess reaction, as follows. The nitrite was reacted with the primary amine of an added sulfanilamide and formed a diazonium salt. This salt was then reacted with added naphthylethylenediamine to form a red azo-dyc. The Griess reaction was performed at room temperature in about 10 minutes. The amount of produced NO was estimated from a standard curve of Griess reaction products determined spectrophotometrically as Absorbance at a wavelength of 550 nm.

In the case of IKISGKWKAQKRKLK [BPI.120], the “activity against L-form bacteria (in words)” value [1] is reported as “active against these L-form bacteria”, the “pmol added to well to achieve a 30 mm^2 bactericidal zone, E. coli J5” value [2] is reported as “b (no detectable activity up to 5 μg/well)” and the “pmol added to well to achieve a 30 mm^2 bactericidal zone, S. aureus” value (Staphylococcus aureus; radial diffusion, PROBIT analysis, S. aureus) is reported as “b (no detectable activity up to 5 μg/well)”. The “pmol added to well to achieve a 30 mm^2 bactericidal zone, E. coli O111:B4” value [3] was “b (no detectable activity up to 5 μg/well)”.

For KWKAQKRFLK [BPI.8], the “bactericidal activity (in words)” value (E. coli O18:K1:H7) was “no bactericidal activity”, the “bactericidal activity (in words)” value [2] was “little to no bactericidal activity; also recorded: no detectable bactericidal activity against E. coli J5 cells at concentrations of 1000 μg/mL; also recorded: little or no bactericidal activity” and the “pmol added to well to achieve a 30 mm^2 bactericidal zone, E. coli J5” value [2] was 25,695.10 pmol. For the same molecule, the “bactericidal activity (in words)” value (Staphylococcus aureus; FIG. 10e) was “no bactericidal activity at concentrations of 800 μg/mL”, the “heparin binding activity (in words)” value [4] was “little or no heparin binding activity” and the “heparin binding capacity (in words)” value [4] was “low heparin binding capacity”. The “Heparin Capacity” value ([4]; heparin bound at saturation) was 92.2 ng, the Kd ([4]; read-out: Heparin Affinity) was 574 nM and the “bactericidal activity (in words)” value (Klebsiella pneumoniae; FIG. 11c, up to about 2000 pmol) was “no bactericidal activity”. For the same molecule, the “bactericidal activity (in words)” value (Klebsiella pneumoniae; FIG. 10d) was “no bactericidal activity at concentrations of 800 μg/mL”, the “bactericidal activity (in words)” value (E. coli strain 07-K1) was “low levels of bactericidal activity” and the “bactericidal activity (in words)” value ([3]; E. coli 0111:B4) was “little to no bactericidal activity”. For the same molecule, the “pmol added to well to achieve a 30 mm^2 bactericidal zone, E. coli O111:B4” value [3] was “b (no detectable activity up to 5 μg/well)”, the “bactericidal activity (in words)” value (Pseudomonas aeruginosa) was “no bactericidal activity” and the “LAL / LPS inhibition activity (in words)” value (E. coli 0113 LPS) was “no significant LPS inhibition activity”. For the same molecule, the “bactericidal activity (in words)” value (E. coli O75) was “no bactericidal activity”.

B1: rBPI23: recombinant 23 kD amino-terminal fragment, approximately the first 199 amino acid residues of human BPI (protein)
chain: VNPGVVVRISQKGLDYASQQGTAALQKELKRIKIPDYSDSFKIKHLGKGHYSFYSMDIREFQLPSSQISMVPNVGLKFSISNANIKISGKWKAQKRFLKMSGNFDLSIEGMSISADLKLGSNPTSGKPTITCSSCSSHINSVHVHISKSKVGWLIQLFHKKIESALRN
With B1 the “APTT in heparinized rats (in words)” value [5] was “administration of about 5 mg/kg results in a APTT of the heparinized and BPI-treated animals that is almost the same as the untreated control animals”, the “effect on the clotting time of heparinized blood (in words)” value ([6]; FIG. 12g) was “smaller effect” and the “effect on heparin-mediated lengthening of APTT (in words)” value ([6]; citrated human plasma, 25 μg/mL heparin, 0.0 to 56 μg/mL) was “inhibits the heparin-mediated lengthening of APTT”. For the same molecule, the “lowest amount with measurable bactericidal activity” value [2] was 0.75 pmol/well, the “bactericidal activity (in words)” value [2] was “showed bactericidal activity” and the “IC50 of inhibition of LPS-stimulated NO production” value [7] was 0.03 to 0.1 µg/mL. For the same molecule, the “cpm ^3H-Heparin bound” value ([4]; 100 picomoles of each fragment per well, saturating 3H-heparin 20 μg/mL, mean of duplicate wells ± range) was 51,222 ± 1,808 cpm, the “bactericidal activity (in words)” value (E. coli strain 07-K1) was “no bactericidal activity at concentrations of 100 μg/mL; also recorded: low bactericidal activity even at concentrations of 1000 μg/mL” and the IC50 (E. coli 0113 LPS; read-out: IC50 of inhibition of the LPS-induced LAL reaction) was 9 nM.
